Experimental data from patent US20050244592A1, “Recording paper and image recording method” (FUJI XEROX CO., LTD., priority 2004, published 2005).

Experiment: Solubility of the carboxylic acid in pure water
Conditions: maximum dissolution based on 100 g of pure water at 20° C.

| Solubility [g/100 g] | Molecule |
| --- | --- |
| 7 | Furan carboxylic acid |
| 10 | O=C(O)c1nc(C(=O)O)c(C(=O)O)c(C(=O)O)c1C(=O)O [Pyridine pentacarboxylic acid] |
